According to patent publication US8680012B2, “4-phenyl-pyrane-3,5-diones,4-phenyl-thiopyrane-3,6-diones and cyclohexanetriones as novel herbicides” (Syngenta Crop Protection LLC, priority 2006, dated 2014):

Experiments:
Assay type in all cases: in vivo
Lolium perenne (LOLPE) [1] = assay: Example A pre-emergence herbicidal activity, glasshouse pot test; settings: 480 h, rate 500 g/ha, evaluated 20 days after spraying, read-out: Pre-emergence activity LOLPE (100=total damage to plant; 0=no damage to plant)
Method: (§1) Seeds of a variety of test species were sown in standard soil in pots. After cultivation for one day (pre-emergence) or after 10 days cultivation (post-emergence) under controlled conditions in a glasshouse, the plants were sprayed with an aqueous spray solution derived from the formulation of the technical active ingredient in 0.6 ml acetone and 45 ml formulation solution containing 10.6% Emulsogen EL (Registry number 61791-12-6), 42.2% N-methylpyrrolidone, 42.2% dipropylene glycol monomethyl ether (Registry number 34590-94-8) and 0.2% X-77 (Registry number 11097-66-8). The test plants were then grown in a greenhouse under optimum conditions until, 15 days later for post-emergence and 20 days for pre-emergence, the test was evaluated (100=total damage to plant; 0=no damage to plant).
(§2) Alopecurus myosuroides (ALOMY), Avena fatua (AVEFA), Lolium perenne (LOLPE), Setaria faberi (SETFA), Digitaria sanguinalis (DIGSA), Echinochloa crus-galli (ECHCG)

Setaria faberi (SETFA) [2] = assay: as above; settings: 480 h, rate 500 g/ha, evaluated 20 days after spraying, read-out: Pre-emergence activity SETFA (100=total damage to plant; 0=no damage to plant)
Method: as §1, §2

[3] = system: Alopecurus myosuroides (ALOMY); assay: as above; settings: 480 h, rate 500 g/ha, evaluated 20 days after spraying, read-out: Pre-emergence activity ALOMY (100=total damage to plant; 0=no damage to plant)
Method: as §1, §2

Avena fatua (AVEFA) [4] = assay: as above; settings: 480 h, rate 500 g/ha, evaluated 20 days after spraying, read-out: Pre-emergence activity AVEFA (100=total damage to plant; 0=no damage to plant)
Method: as §1, §2

[5] = system: Digitaria sanguinalis (DIGSA); assay: as above; settings: 480 h, rate 500 g/ha, evaluated 20 days after spraying, read-out: Pre-emergence activity DIGSA (100=total damage to plant; 0=no damage to plant)
Method: as §1, §2

[6] = system: Echinochloa crus-galli (ECHCG); assay: as above; settings: 480 h, rate 500 g/ha, evaluated 20 days after spraying, read-out: Pre-emergence activity ECHCG (100=total damage to plant; 0=no damage to plant)
Method: as §1, §2

Lolium perenne (LOLPE) [7] = assay: Example A post-emergence herbicidal activity, glasshouse pot test; settings: 360 h, rate 125 g/ha, evaluated 15 days after spraying, read-out: Post-emergence activity LOLPE (100=total damage to plant; 0=no damage to plant)
Method: as §1, §2

Setaria faberi (SETFA) [8] = assay: as above; settings: 360 h, rate 125 g/ha, evaluated 15 days after spraying, read-out: Post-emergence activity SETFA (100=total damage to plant; 0=no damage to plant)
Method: as §1, §2

[9] = system: Alopecurus myosuroides (ALOMY); assay: as above; settings: 360 h, rate 125 g/ha, evaluated 15 days after spraying, read-out: Post-emergence activity ALOMY (100=total damage to plant; 0=no damage to plant)
Method: as §1, §2

Avena fatua (AVEFA) [10] = assay: as above; settings: 360 h, rate 125 g/ha, evaluated 15 days after spraying, read-out: Post-emergence activity AVEFA (100=total damage to plant; 0=no damage to plant)
Method: as §1, §2

[11] = system: Digitaria sanguinalis (DIGSA); assay: as above; settings: 360 h, rate 125 g/ha, evaluated 15 days after spraying, read-out: Post-emergence activity DIGSA (100=total damage to plant; 0=no damage to plant)
Method: as §1, §2

[12] = system: Echinochloa crus-galli (ECHCG); assay: as above; settings: 360 h, rate 125 g/ha, evaluated 15 days after spraying, read-out: Post-emergence activity ECHCG (100=total damage to plant; 0=no damage to plant)
Method: as §1, §2

Setaria faberi (SETFA) [13] = assay: Example B post-emergence herbicidal activity, glasshouse pot test; settings: 312 h, rate 1000 g/ha, evaluated after 13 days, read-out: Post-emergence activity SETFA (100=total damage to plant; 0=no damage to plant)
Method in brief: (§3)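 Spray application in 50:50 acetone/water with 0.5% Tween 20, pre-emergence at 1 day or post-emergence at 8 days after sowing. Evaluated visually at 13 days on a 0–100 damage scale.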

[14] = system: Alopecurus myosuroides (ALOMY); assay: as above; settings: 312 h, rate 1000 g/ha, evaluated after 13 days, read-out: Post-emergence activity ALOMY (100=total damage to plant; 0=no damage to plant)
Method in brief: as §3

Avena fatua (AVEFA) [15] = assay: as above; settings: 312 h, rate 1000 g/ha, evaluated after 13 days, read-out: Post-emergence activity AVEFA (100=total damage to plant; 0=no damage to plant)
Method in brief: as §3

[16] = system: Echinochloa crus-galli (ECHCG); assay: as above; settings: 312 h, rate 1000 g/ha, evaluated after 13 days, read-out: Post-emergence activity ECHCG (100=total damage to plant; 0=no damage to plant)
Method in brief: as §3

Solanum nigrum (SOLNI) [17] = assay: as above; settings: 312 h, rate 1000 g/ha, evaluated after 13 days, read-out: Post-emergence activity SOLNI (100=total damage to plant; 0=no damage to plant)
Method in brief: as §3

[18] = system: Amaranthus retroflexus (AMARE); assay: as above; settings: 312 h, rate 1000 g/ha, evaluated after 13 days, read-out: Post-emergence activity AMARE (100=total damage to plant; 0=no damage to plant)
Method in brief: as §3

Setaria faberi (SETFA) [19] = assay: Example B pre-emergence herbicidal activity, glasshouse pot test; settings: 312 h, rate 1000 g/ha, evaluated after 13 days, read-out: Pre-emergence activity SETFA (100=total damage to plant; 0=no damage to plant)
Method in brief: as §3

[20] = system: Alopecurus myosuroides (ALOMY); assay: as above; settings: 312 h, rate 1000 g/ha, evaluated after 13 days, read-out: Pre-emergence activity ALOMY (100=total damage to plant; 0=no damage to plant)
Method in brief: as §3

Avena fatua (AVEFA) [21] = assay: as above; settings: 312 h, rate 1000 g/ha, evaluated after 13 days, read-out: Pre-emergence activity AVEFA (100=total damage to plant; 0=no damage to plant)
Method in brief: as §3

[22] = system: Echinochloa crus-galli (ECHCG); assay: as above; settings: 312 h, rate 1000 g/ha, evaluated after 13 days, read-out: Pre-emergence activity ECHCG (100=total damage to plant; 0=no damage to plant)
Method in brief: as §3

Solanum nigrum (SOLNI) [23] = assay: as above; settings: 312 h, rate 1000 g/ha, evaluated after 13 days, read-out: Pre-emergence activity SOLNI (100=total damage to plant; 0=no damage to plant)
Method in brief: as §3

[24] = system: Amaranthus retroflexus (AMARE); assay: as above; settings: 312 h, rate 1000 g/ha, evaluated after 13 days, read-out: Pre-emergence activity AMARE (100=total damage to plant; 0=no damage to plant)
Method in brief: as §3

SMILES | pest or weed control at 1000 g/ha (Setaria faberi (SETFA) [13]) [%] | pest or weed control at 1000 g/ha [14] [%] | pest or weed control at 1000 g/ha (Avena fatua (AVEFA) [15]) [%] | pest or weed control at 1000 g/ha [16] [%] | pest or weed control at 1000 g/ha (Solanum nigrum (SOLNI) [17]) [%] | pest or weed control at 1000 g/ha [18] [%] | pest or weed control at 1000 g/ha (Setaria faberi (SETFA) [19]) [%] | pest or weed control at 1000 g/ha [20] [%] | pest or weed control at 1000 g/ha (Avena fatua (AVEFA) [21]) [%] | pest or weed control at 1000 g/ha [22] [%] | pest or weed control at 1000 g/ha (Solanum nigrum (SOLNI) [23]) [%] | pest or weed control at 1000 g/ha [24] [%] | further results
Cc1ccc(-c2ccc(Cl)cc2)cc1C1=C(O)COC(C)(C)C1=O (single isomer, unassigned) [Compound A-1] | – | – | – | – | – | – | – | – | – | – | – | – | pest or weed control at 500 g/ha (Lolium perenne (LOLPE) [1]): 10%; pest or weed control at 500 g/ha (Setaria faberi (SETFA) [2]): 70%; pest or weed control at 500 g/ha [3]: 40%; pest or weed control at 500 g/ha (Avena fatua (AVEFA) [4]): 10%; pest or weed control at 500 g/ha [5]: 70%; pest or weed control at 500 g/ha [6]: 50%; pest or weed control at 125 g/ha (Lolium perenne (LOLPE) [7]): 80%; pest or weed control at 125 g/ha (Setaria faberi (SETFA) [8]): 50%; pest or weed control at 125 g/ha [9]: 10%; pest or weed control at 125 g/ha (Avena fatua (AVEFA) [10]): 0%; pest or weed control at 125 g/ha [11]: 0%; pest or weed control at 125 g/ha [12]: 70%
CCc1ccc(-c2ccc(Cl)cc2)cc1C1=C(OC(=O)OCC(C)C)C(C)(C)OC(C)(C)C1=O [Compound D-14] | 100 | 20 | 10 | 100 | 0 | 0 | 90 | 50 | 20 | 60 | 0 | 0 | –
C#CCOC(=O)OC1=C(c2cc(-c3ccc(Cl)cc3)ccc2CC)C(=O)C(C)(C)OC1(C)C [Compound D-15] | 100 | 80 | 60 | 100 | 0 | 0 | 100 | 80 | 60 | 100 | 0 | 0 | –
CCc1ccc(-c2ccc(Cl)cc2)cc1C1=C(OC(=O)OC)C(C)(C)OC(C)(C)C1=O [Compound D-16] | 100 | 90 | 20 | 100 | 0 | 0 | 100 | 50 | 0 | 90 | 0 | 0 | –
CCc1ccc(-c2ccc(Cl)cc2)cc1C1=C(OC(=O)OC(C)C)C(C)(C)OC(C)(C)C1=O [Compound D-17] | 100 | 60 | 20 | 100 | 0 | 10 | 90 | 20 | 0 | 80 | 0 | 0 | –
CCc1ccc(-c2ccc(Cl)cc2)cc1C1=C(OC(=O)C(C)OC)C(C)(C)OC(C)(C)C1=O [Compound D-19] | 100 | 90 | 80 | 100 | 0 | 0 | 100 | 70 | 20 | 100 | 0 | 0 | –
CCc1ccc(-c2ccc(Cl)cc2)cc1C1=C(OC(=O)C(C)(C)OC)C(C)(C)OC(C)(C)C1=O [Compound D-20] | 100 | 100 | 90 | 100 | 0 | 20 | 90 | 30 | 0 | 60 | 0 | 0 | –
CCc1ccc(-c2ccc(Cl)cc2)cc1C1=C(OC(=O)CCOC)C(C)(C)OC(C)(C)C1=O [Compound D-21] | 100 | 100 | 90 | 100 | 30 | 10 | 100 | 90 | 50 | 100 | 0 | 0 | –
